Where two headings read alike, the source gives them in different places.
What was measured:
[1] = Study B: single-dose pharmacokinetics of 25-hydroxyvitamin D3 in healthy subjects; type: in vivo; conditions: human, serum, iv, 448 ug, single i.v. dose 448 μg in ethanol solution
[2] = Study A: single-dose pharmacokinetics of serum 25-hydroxyvitamin D3 in subjects with stage 3 or 4 CKD; type: in vivo, human; conditions: for Tmax / Cmax / AUC(0-t) / AUC(0-inf) / half-life: human, serum, iv, 448 ug
serum iPTH = experiment: Study A: serum iPTH after single dose; type: in vivo, human; conditions: single i.v. dose 448 μg, first 96 hours
[3] = test system: serum total 1,25-dihydroxyvitamin D; experiment: Study A: serum total 1,25-dihydroxyvitamin D after single dose; type: in vivo, human; conditions: single i.v. dose 448 μg, by 6 hours post-dose
[4] = baseline-adjusted 25-hydroxyvitamin D3, 448 μg iv single dose
[5] = observed 25-hydroxyvitamin D3, 448 μg iv single dose

With C=C1CC[C@H](O)C/C1=C/C=C1\CCC[C@]2(C)[C@@H]([C@H](C)CCCC(C)(C)O)CC[C@@H]12 [25-hydroxyvitamin D3] the Cmax [1] was 153 ng/mL, the “CL mean (SD)” value [2, 4] was 0.036 (0.014) L/ng * h and the CL median [2, 4] was 0.037 L/ng/h. The F mean [2, 4] was 1.000 (NA), the “Vd mean (SD)” value [2, 4] was 32.94 (11.00) L/ng and the Vd median [2, 4] was 29.70 L/ng. For the same compound, the “λ2 mean (SD)” value [2, 4] was 0.0011 (0.0005) h^−1, the λ2 median [2, 4] was 0.0010 h⁻¹ and the Tmax ([2]; Study A, single i.v. dose 448 μg in ethanol solution, read-out: Tmax) was 30 min. For the same compound, the Cmax ([2]; approximate mean Cmax of 25-hydroxyvitamin D3, Study A, single i.v. dose 448 μg in ethanol solution) was ~134 ng/mL, the AUC(0-t) ([2]; baseline-adjusted 25-hydroxyvitamin D3, 448 μg iv single dose, read-out: AUC0-42 days mean) was 19600 ng·h/mL and the AUC(0-t) ([2]; baseline-adjusted 25-hydroxyvitamin D3, 448 μg iv single dose, read-out: AUC0-42 days median) was 18800 ng·h/mL. It also gave an AUC(0-inf) ([2]; baseline-adjusted 25-hydroxyvitamin D3, 448 μg iv single dose, read-out: AUC0-inf mean) of 34500 ng·h/mL, an AUC(0-inf) ([2]; baseline-adjusted 25-hydroxyvitamin D3, 448 μg iv single dose, read-out: AUC0-inf median) of 27000 ng·h/mL and an AUC(0-t) ([2]; baseline-adjusted 25-hydroxyvitamin D3, 448 μg iv single dose, read-out: AUC0-last mean) of 19600 ng·h/mL. The AUC(0-t) ([2]; baseline-adjusted 25-hydroxyvitamin D3, 448 μg iv single dose, read-out: AUC0-last median) was 18800 ng·h/mL, the Cmax ([2]; baseline-adjusted 25-hydroxyvitamin D3, 448 μg iv single dose, read-out: Cmax mean (SD)) was 110 ng/mL and the Cmax ([2]; baseline-adjusted 25-hydroxyvitamin D3, 448 μg iv single dose, read-out: Cmax median) was 111 ng/mL. For the same compound, the half-life ([2]; baseline-adjusted 25-hydroxyvitamin D3, 448 μg iv single dose, read-out: t1/2 mean (SD) (converted)) was 31.1 days, the half-life ([2]; baseline-adjusted 25-hydroxyvitamin D3, 448 μg iv single dose, read-out: t1/2 median (converted)) was 27.6 days and the Tmax ([2]; baseline-adjusted 25-hydroxyvitamin D3, 448 μg iv single dose, read-out: tmax mean (SD)) was 29.4 min. For the same compound, the Tmax ([2]; baseline-adjusted 25-hydroxyvitamin D3, 448 μg iv single dose, read-out: tmax median) was 15 min, the AUC(0-t) ([2]; observed 25-hydroxyvitamin D3, 448 μg iv single dose, read-out: AUC0-42 days mean) was 43500 ng·h/mL and the AUC(0-t) ([2]; observed 25-hydroxyvitamin D3, 448 μg iv single dose, read-out: AUC0-42 days median) was 47100 ng·h/mL. It also gave an AUC(0-inf) ([2]; observed 25-hydroxyvitamin D3, 448 μg iv single dose, read-out: AUC0-inf mean) of 138000 ng·h/mL, an AUC(0-inf) ([2]; observed 25-hydroxyvitamin D3, 448 μg iv single dose, read-out: AUC0-inf median) of 124000 ng·h/mL and an AUC(0-t) ([2]; observed 25-hydroxyvitamin D3, 448 μg iv single dose, read-out: AUC0-last mean) of 43500 ng·h/mL. It also gave an AUC(0-t) ([2]; observed 25-hydroxyvitamin D3, 448 μg iv single dose, read-out: AUC0-last median) of 47100 ng·h/mL, a Cmax ([2]; observed 25-hydroxyvitamin D3, 448 μg iv single dose, read-out: Cmax mean (SD)) of 134 ng/mL and a Cmax ([2]; observed 25-hydroxyvitamin D3, 448 μg iv single dose, read-out: Cmax median) of 134 ng/mL. For the same compound, the half-life ([2]; observed 25-hydroxyvitamin D3, 448 μg iv single dose, read-out: t1/2 mean (SD) (converted)) was 74 days, the half-life ([2]; observed 25-hydroxyvitamin D3, 448 μg iv single dose, read-out: t1/2 median (converted)) was 70.6 days and the Tmax ([2]; observed 25-hydroxyvitamin D3, 448 μg iv single dose, read-out: tmax mean (SD)) was 29.4 min. The Tmax ([2]; observed 25-hydroxyvitamin D3, 448 μg iv single dose, read-out: tmax median) was 15 min, the “CL mean (SD)” value [2, 5] was 0.0095 (0.0065) L/ng * h and the CL median [2, 5] was 0.0081 L/ng/h. The F mean [2, 5] was 1.000 (NA), the “Vd mean (SD)” value [2, 5] was 20.35 (7.42) L/ng and the Vd median [2, 5] was 19.550 L/ng. The “λ2 mean (SD)” value [2, 5] was 0.0005 (0.0002) h^−1, the λ2 median [2, 5] was 0.0004 h⁻¹ and the “change in serum iPTH” value (serum iPTH) was “no meaningful change”. For the same compound, the “increase of mean serum total 1,25-dihydroxyvitamin D from pre-treatment baseline” value [3] was “approximately 13 pg/mL”.
